Results taken from patent US20240279225A1, “COMPOUNDS AND METHODS FOR THERANOSTIC TARGETING OF PARP ACTIVITY” (BOARD OF REGENTS, THE UNIVERSITY OF TEXAS SYSTEM, priority 2021, published 2024).
“Also recorded” adds a separate entry of the source. Where two headings read alike, the source gives them in different places.

Experiments:
PARP1 [1] = biological target: T1, PARP1 (Homo sapiens, UniProt P09874); details: purified enzyme assays, background values; cited from earlier work
[2] = mouse models, cited from earlier work
[3] = humans, eight subjects with cancer and eight healthy volunteers; cited from earlier work
[4] = Shelf stability in PBS (10% EtOH); format: physicochemical
PARP1 [5] = biological target: T2, PARP1 (Mus musculus, UniProt P11103); assay: In vivo whole body biodistribution and blocking by small animal PET/CT
T2 construct: from tissue; host or cells: Lymphoid tissue and liver of a living nude female mouse
T2 sequence (P11103 whole entry): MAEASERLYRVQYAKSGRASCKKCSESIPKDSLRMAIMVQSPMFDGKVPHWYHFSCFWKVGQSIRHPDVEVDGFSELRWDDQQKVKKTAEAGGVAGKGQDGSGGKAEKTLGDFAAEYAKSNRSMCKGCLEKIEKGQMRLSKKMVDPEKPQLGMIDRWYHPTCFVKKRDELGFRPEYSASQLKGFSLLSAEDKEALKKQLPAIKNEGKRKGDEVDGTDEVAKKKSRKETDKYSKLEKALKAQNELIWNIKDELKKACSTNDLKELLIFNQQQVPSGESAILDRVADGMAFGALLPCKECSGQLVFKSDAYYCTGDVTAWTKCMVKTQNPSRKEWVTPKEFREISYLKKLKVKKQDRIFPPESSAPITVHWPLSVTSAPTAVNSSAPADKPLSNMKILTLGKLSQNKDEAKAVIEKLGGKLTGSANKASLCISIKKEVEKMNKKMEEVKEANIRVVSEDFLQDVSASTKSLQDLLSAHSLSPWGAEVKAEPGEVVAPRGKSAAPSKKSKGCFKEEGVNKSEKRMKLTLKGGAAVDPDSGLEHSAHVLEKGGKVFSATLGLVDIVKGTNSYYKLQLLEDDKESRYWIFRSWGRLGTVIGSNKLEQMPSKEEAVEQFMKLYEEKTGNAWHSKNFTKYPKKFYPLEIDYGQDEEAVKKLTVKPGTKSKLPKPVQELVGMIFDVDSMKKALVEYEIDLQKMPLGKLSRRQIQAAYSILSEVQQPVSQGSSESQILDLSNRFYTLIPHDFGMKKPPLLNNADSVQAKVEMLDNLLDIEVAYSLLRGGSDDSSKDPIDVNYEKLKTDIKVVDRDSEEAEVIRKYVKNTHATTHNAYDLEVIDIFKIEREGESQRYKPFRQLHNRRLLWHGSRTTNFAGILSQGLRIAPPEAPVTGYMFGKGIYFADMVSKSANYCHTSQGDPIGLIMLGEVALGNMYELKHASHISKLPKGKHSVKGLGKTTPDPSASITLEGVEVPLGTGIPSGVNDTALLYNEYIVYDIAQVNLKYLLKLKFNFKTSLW
Description: Preliminary PET images were acquired for 10 min using a 15 cm field of view (FOV); CT images were acquired for fusion using a 7 cm FOV and automatically “stitched” and fused to the PET imaging in the reconstruction software (Albira Suite, Bruker). […] Image data were decay corrected to injection time (Albira, Bruker) and expressed as % ID/cc or SUV as indicated (PMOD, PMOD Technologies). Actual injected dose was calculated based on measuring the pre- and post-injection activity in the syringe with a dose calibrator (Capintec) and mice were individually weighed to calculate individual standardized uptake values (SUV).
In vivo whole body biodistribution and blocking experiments were performed using a small animal PET/CT scanner after the injection of ^18F-Talazoparib (˜100 μCi) in a nude female mouse; images were acquired two hours post injection and decay corrected to the injection time.

MCF-7 empty vector cells = assay: Cellular uptake of ^18F-Talazoparib, MCF-7 empty vector cells; format: cell-based
Description: (§1) All experiments were performed in quadruplicate in a 24 well plate format. […] Experiment that abrogated metabolism were performed at 4° C., a temperature at which cellular membranes become less fluid and permeability is low. After 120 min, an aliquot of the cell media (200 μl) was obtained for gamma counting, the remaining media removed, and cells washed with MEBSS. Cells were then lysed with 1% SDS, 10 mM sodium borate for 30 min at room temperature. […] Protein contents were quantified using BCA protein assay kit (Thermos Scientific) according to the manufacture's protocol using bovine serum albumin (BSA) as the protein standard.

[6] = tested on: MCF-7 cells stably transfected with MDR1 P-glycoprotein (Pgp); assay: Cellular uptake of ^18F-Talazoparib, MCF-7 cells expressing MDR1 Pgp
Description: as §1

[7] = Stability in full human plasma at 37° C.; format: in vitro ADME
PARP1 [8] = biological target: T1, PARP1; assay: PARP1 apoptosis assay kit (Trevigen), inhibition of purified PARP1 enzyme activity; format: biochemical; details: racemic mixture, three replicates per concentration

T1 sequence (P09874 whole entry): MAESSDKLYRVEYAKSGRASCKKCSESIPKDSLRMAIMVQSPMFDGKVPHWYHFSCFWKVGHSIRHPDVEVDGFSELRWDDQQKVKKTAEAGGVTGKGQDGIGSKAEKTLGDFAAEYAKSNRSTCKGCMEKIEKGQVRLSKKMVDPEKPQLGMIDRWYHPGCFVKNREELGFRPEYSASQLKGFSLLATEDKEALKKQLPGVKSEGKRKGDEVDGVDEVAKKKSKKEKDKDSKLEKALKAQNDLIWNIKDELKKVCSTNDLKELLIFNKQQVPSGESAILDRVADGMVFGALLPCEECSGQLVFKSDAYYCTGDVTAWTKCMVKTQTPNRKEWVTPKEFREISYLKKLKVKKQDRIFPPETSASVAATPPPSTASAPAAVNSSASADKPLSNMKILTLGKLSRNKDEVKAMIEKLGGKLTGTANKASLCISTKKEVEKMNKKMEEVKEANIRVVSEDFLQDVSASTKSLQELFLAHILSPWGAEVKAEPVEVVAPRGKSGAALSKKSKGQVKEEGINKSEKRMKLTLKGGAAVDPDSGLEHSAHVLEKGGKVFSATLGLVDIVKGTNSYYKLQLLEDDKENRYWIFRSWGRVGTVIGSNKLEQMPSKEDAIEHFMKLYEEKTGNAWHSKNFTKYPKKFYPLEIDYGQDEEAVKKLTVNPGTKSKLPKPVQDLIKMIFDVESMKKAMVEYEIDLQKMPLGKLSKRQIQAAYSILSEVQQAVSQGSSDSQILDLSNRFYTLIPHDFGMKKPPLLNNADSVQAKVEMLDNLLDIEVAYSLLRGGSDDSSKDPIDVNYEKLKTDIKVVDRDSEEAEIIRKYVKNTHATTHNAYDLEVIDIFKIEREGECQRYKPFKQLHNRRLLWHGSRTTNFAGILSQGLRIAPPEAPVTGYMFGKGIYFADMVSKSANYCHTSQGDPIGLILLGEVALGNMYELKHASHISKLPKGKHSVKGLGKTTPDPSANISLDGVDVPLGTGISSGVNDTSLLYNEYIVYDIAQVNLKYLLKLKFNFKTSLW

## O=C1NCCn2c(-c3ccc(OCCF)cc3)nc3cccc1c32 [^18F-FTT]
PARP1 [1]
  IC50: 6.3 nM

## O=C1NCCn2c(-c3ccc(OCC[18F])cc3)nc3cccc1c32 [^18F-FTT]
[2]; after 5 minutes
  intact parent molecule observed in the blood: 55%
[2]; after 30 min
  intact parent molecule observed in the blood: 13%
[3]
  organ uptake on PET imaging: high uptake in spleen, pancreas, and liver

## Cn1ncnc1C1c2n[nH]c(=O)c3cc([18F])cc(c23)NC1c1ccc(F)cc1 (stereo not drawn) [^18F-Talazoparib, 5-[^18F]fluoro-8-(4-fluorophenyl)-9-(1-methyl·1H·1,2,4-triazol-5-yl)-2,7,8,9-tetrahydro-3H-pyrido[4,3,2-de]phthalazin-3-one]
[4]
  shelf stability: up to 4 h
PARP1 [5]; 0.3 mg/kg cold Talazoparib IV 60 minutes before tracer
  blocking of lymphoid tissue and liver uptake by cold Talazoparib: could be blocked by excess cold Talazoparib; also recorded: blockade of target engagement of PARP1
PARP1 [5]; 2 hr static images, vehicle-treated nude mice
  excretion pathway: mixed excretion pathway (renal and hepatobiliary clearance)
PARP1 [5]; nude female mouse, ~100 μCi, two hours post injection
  tissue uptake on PET images: uptake in the lymphoid tissue (LT) located at the base of the neck, in the liver (L), and in excretory organs, such as bladder and intestine
MCF-7 empty vector cells; 37° C., 100 nM non-radioactive Talazoparib preincubated 30 min
  cell uptake in presence of excess non-radioactive Talazoparib: completely blocked
MCF-7 empty vector cells; 120 min incubation at 37° C., compared to 4° C.
  cell uptake of tracer: high uptake of the tracer compared to cells incubated at 4 °C
MCF-7 empty vector cells; LY-335979 or CP-100356 preincubated 30 min
  effect of MDR inhibitors on cell uptake: no effect
[6]
  MDR1 Pgp transport substrate: recognized as a transport substrate by MDR1 Pgp
[6]; MDR1 Pgp expressed, 4° C.
  basal retention at 4° C.: further reduced
[6]; MDR1 Pgp expressed, 37° C., 120 min
  net retention of tracer: drastic decrease in the net retention
[6]; MDR1 Pgp expressed, excess cold Talazoparib
  basal retention with excess cold Talazoparib: fully displaced
[6]; MDR1 Pgp expressed, with LY or CP
  cellular retention with Pgp-mediated efflux inhibited: increased back to levels compared to MCF-7 cells lacking MDR1 Pgp
[7]
  stable in full human plasma: up to 4 h

## methyl 2-(4-bromophenyl)-7-fluoro-3-(1-methyl-1H-1,2,4-triazol-5-yl)-4-oxo-1,2,3,4-tetrahydroquinoline-5-carboxylate [Compound 1]
PARP1 [8]
  IC50: 2.33 nM
